Source: article PMC5487684, “Safety, Pharmacokinetics, and Antiviral Activity of a Novel HIV Antiviral, ABX464, in Treatment-Naive HIV-Infected Subjects in a Phase 2 Randomized, Controlled Study” (Antimicrobial Agents and Chemotherapy, 2017)
Entries after “also recorded” stand apart in the source; their conditions may differ.

Key:
HIV [1] = experiment: HIV viral load (HIV-1 RNA copies per milliliter) in treatment-naive HIV-infected patients; assay type: in vivo
Experimental: Safety assessments and laboratory tests were carried out according to the schedules described in Table S4 for groups dosed every day, every 3 days, and 3 times a day. Follow-up visits were scheduled for 7 days after the last dose and subsequently once every week in order to assess the elimination of the main ABX464 metabolite and to assess the viral load. Follow-up visits were terminated when the virus load was within 0.5 log of the baseline value or after 3 follow-up visits, whichever came first. Prior to the statistical analyses, AEs were coded using the Medical Dictionary for Regulatory Activities (MedDRA dictionary; last available version) in order to be tabulated by system organ class (SOC) and preferred term (PT). The AEs were analyzed according to the treatment emergence phase from the first study drug administration on day 1 up to 48 h after the last study drug administration. The number and percentage of subjects with at least one TEAE were tabulated by SOC and PT for each group and dose. The number of occurrences of TEAEs was also analyzed in the same way by SOC and PT for each group and dose, by grade of severity for each group and dose, and by level of causality to the study drug for each group and dose.
Plasma samples were analyzed for ABX464 and ABX464-NGlc using validated bioanalytical methods by Atlanbio (Saint Nazaire, France) according to good laboratory practices. Pharmacokinetic parameters were calculated by noncompartmental analysis (NCA), using Phoenix WinNonlin software (Pharsight Corporation) running on a personal computer. On day 1, the following PK parameters were generated: Cmax, the time to Cmax (Tmax), lag time (tlag), elimination rate constant (kel), area under the concentration-time curve (AUC) from time zero to time t (AUC0–t), AUC from time zero to infinity (AUC0–∞), apparent clearance (CL/F), and apparent volume of distribution (V/F). On the other days of PK assessment, only Cmax, Tmax, tlag, kel, and AUC0–t were generated. The secondary analysis concerned pharmacodynamic (PD) activity, as expressed by CD4 and CD8 levels and viral load across time. The HIV viral load was analyzed in the prequalified individual local study center laboratories. CD4 and CD8 cell counts were also determined in the local study center laboratories. With respect to the viral load, changes in the log-transformed viral load values between 24 h postdose and predose were calculated on each day, and a comparison between each dose level and pooled placebo data was made. Moreover, the rate of success (defined as a decrease in the viral load value of at least 0.5 log) was evaluated for each treatment (including placebo) and compared between treatments.
No formal sample size determination was done. The aim of the study was to obtain reliable and consistent data and to expose a limited number of subjects to ABX464. To achieve this aim, six subjects per group received ABX464. A mixed model analysis of covariance of the changes in the viral load compared to that at the baseline was conducted on log-transformed values. Baseline parameters and age were covariates, treatment groups were fixed effects, and subjects were random effects.

[2] = cited from earlier work
HIV [3] = tested on: HIV; parameters: method as in PMID 25889234; conditions: cited from earlier work
HIV replication in PBMCs = tested on: HIV replication in PBMCs; parameters: method as in PMID 25889234; conditions: in vitro; cited from earlier work
[4] = tested on: HIV replication in macrophages; parameters: method as in PMID 25889234; conditions: in vitro; cited from earlier work
HIV [5] = tested on: HIV; parameters: method as in PMID 25889234; conditions: human PBMCs, treatment for at least 24 weeks; cited from earlier work
healthy subjects = conditions: cited from earlier work
[6] = Non-infected, single oral 50mg (fasted), N 17
[7] = Non-infected, single oral 50mg (fasted), N 23

## FC(F)(F)Oc1ccc(Nc2ccc3cccc(Cl)c3n2)cc1 [ABX464]
HIV [1]; Group 6 (100 mg q.d., fasted), subject 804, day 11
  Change in log10 no. of RNA copies/ml from that at the baseline: −0.52 log10 no. of RNA copies/ml
HIV [1]; Group 6 (100 mg q.d., fasted), subject 804, day 15
  Change in log10 no. of RNA copies/ml from that at the baseline: −0.59 log10 no. of RNA copies/ml
HIV [1]; Group 6 (100 mg q.d., fasted), subject 807, day 11
  Change in log10 no. of RNA copies/ml from that at the baseline: −0.51 log10 no. of RNA copies/ml
HIV [1]; Group 6 (100 mg q.d., fasted), subject 807, day 18
  Change in log10 no. of RNA copies/ml from that at the baseline: −1.44 log10 no. of RNA copies/ml
HIV [1]; Group 7 (150 mg every 3 days, fed), subject 908, day 16
  Change in log10 no. of RNA copies/ml from that at the baseline: −0.72 log10 no. of RNA copies/ml
HIV [1]; Group 7 (150 mg every 3 days, fed), subject 908, day 19
  Change in log10 no. of RNA copies/ml from that at the baseline: −0.53 log10 no. of RNA copies/ml
HIV [1]; Group 7 (150 mg every 3 days, fed), subject 908, day 20
  Change in log10 no. of RNA copies/ml from that at the baseline: −0.59 log10 no. of RNA copies/ml
HIV [1]; Group 8 (150 mg q.d., fed), subject 1001, day 10
  Change in log10 no. of RNA copies/ml from that at the baseline: −0.5 log10 no. of RNA copies/ml
HIV [1]; Group 8 (150 mg q.d., fed), subject 1001, day 11
  Change in log10 no. of RNA copies/ml from that at the baseline: −0.62 log10 no. of RNA copies/ml
HIV [1]; Group 8 (150 mg q.d., fed), subject 1001, day 14
  Change in log10 no. of RNA copies/ml from that at the baseline: −0.72 log10 no. of RNA copies/ml
HIV [1]; Group 8 (150 mg q.d., fed), subject 1001, day 15
  Change in log10 no. of RNA copies/ml from that at the baseline: −0.68 log10 no. of RNA copies/ml
HIV [1]; Group 8 (150 mg q.d., fed), subject 1004, day 10
  Change in log10 no. of RNA copies/ml from that at the baseline: −0.5 log10 no. of RNA copies/ml
HIV [1]; Group 8 (150 mg q.d., fed), subject 1004, day 14
  Change in log10 no. of RNA copies/ml from that at the baseline: −0.51 log10 no. of RNA copies/ml
HIV [1]; Group 8 (150 mg q.d., fed), subject 1004, day 15
  Change in log10 no. of RNA copies/ml from that at the baseline: −0.51 log10 no. of RNA copies/ml
HIV [1]; Group 8 (150 mg q.d., fed), subject 1005, day 7
  Change in log10 no. of RNA copies/ml from that at the baseline: −0.53 log10 no. of RNA copies/ml
HIV [1]; Group 8 (150 mg q.d., fed), subject 1005, day 11
  Change in log10 no. of RNA copies/ml from that at the baseline: −0.52 log10 no. of RNA copies/ml
HIV [1]; Group 8 (150 mg q.d., fed), subject 1008, day 8
  Change in log10 no. of RNA copies/ml from that at the baseline: −0.59 log10 no. of RNA copies/ml
HIV [1]; Group 8 (150 mg q.d., fed), subject 1008, day 10
  Change in log10 no. of RNA copies/ml from that at the baseline: −0.57 log10 no. of RNA copies/ml
HIV [1]; Group 8 (150 mg q.d., fed), subject 1008, day 11
  Change in log10 no. of RNA copies/ml from that at the baseline: −0.56 log10 no. of RNA copies/ml
HIV [1]; Group 8 (150 mg q.d., fed), subject 1008, day 14
  Change in log10 no. of RNA copies/ml from that at the baseline: −0.53 log10 no. of RNA copies/ml
HIV [1]; any time point over the 14-day study period, all treatment groups
  Mean changes in the viral load vs placebo group: No statistically significant differences
HIV [1]; group 1, 25 mg every 3 days, fasted
  Subjects with a decrease of ≥0.5 log10 in HIV RNA load: 3 subjects
HIV [1]; group 2, 25 mg q.d., fasted
  Subjects with a decrease of ≥0.5 log10 in HIV RNA load: 1 subjects
HIV [1]; group 4, 50 mg t.i.d., fed
  Subjects with a decrease of ≥0.5 log10 in HIV RNA load: 2 subjects
HIV [1]; group 5, 75 mg q.d., fed
  Subjects with a decrease of ≥0.5 log10 in HIV RNA load: 1 subjects
HIV [1]; group 6, 100 mg q.d., fasted
  Subjects with a decrease of ≥0.5 log10 in HIV RNA load: 2 subjects
HIV [1]; group 7, 150 mg every 3 days, fed
  Subjects with a decrease of ≥0.5 log10 in HIV RNA load: 1 subjects
HIV [1]; group 8, 150 mg q.d. for 2 weeks, fed (6 treated)
  Subjects with a decrease of ≥0.5 log10 in HIV RNA load: 4 subjects
[2]; [6]
  AUC0-∞, GM: 43.93 ng·h/mL
  AUC0-∞, Mean: 51.74 ng·h/mL
  t1/2, GM: 49.8 min
  t1/2, Mean: 52.8 min
[2]; [7]
  Cmax, GM: 13.70 ng/mL
  Cmax, Mean: 17.70 ng/mL
  tmax, Mean: 90 min
[2]; healthy subjects, single ascending oral dose
  Metabolism in human subjects: rapidly and substantially metabolized into ABX464-N-glucuronide
HIV [3]
  Virus replication in two humanized mouse models of HIV infection: substantially reduced virus replication
HIV [3]; humanized mice, after 2 to 3 weeks of treatment
  Mice with an undetectable viral load: 30%
HIV [3]; vs cART-treated control animals, over 6 weeks after treatment termination
  Virus rebound after termination of therapy: substantially lower virus rebound
HIV replication in PBMCs
  Antiviral effect on HIV replication in PBMCs: can inhibit HIV replication
[4]
  Inhibition of HIV replication in macrophage culture: can inhibit HIV replication
HIV [5]
  Development of drug resistance in vitro: no development of resistance-inducing mutations; also recorded: did not induce any drug resistance
Healthy subjects
  Tolerability in healthy volunteers, food effect and repeated dosing study: good tolerability profile
Healthy subjects; single ascending oral dose, up to 150 mg
  Tolerability in healthy subjects, first-in-human study: very well tolerated; also recorded: well tolerated
